Measurements from patent US11414379B2, “SPAK kinase inhibitors as neuroprotective agents” (United States Government as represented by the Department …, priority 2018, dated 2022).

Assays:
[1] = system: KCCs sites-1/2 (KCC2 Thr906/1007 or KCC3 Thr991/1048) phosphorylation; test: Phosphorylation immunoblot in HEK293 cells; format: cell-based, human; conditions: only at this concentration
Description: HEK293 (human embryonic kidney 293) cells were cultured on 10-cm-diameter dishes in DMEM supplemented with 10% (v/v) foetal bovine serum, 2 mM L-glutamine, 100 U/ml penicillin and 0.1 mg/ml streptomycin. HEK293 cells were transfected with a mixture of 20 μl of 1 mg/ml polyethylenimine (Polysciences) and 5-10 μg of plasmid DNA as described previously (Durocher et al., 2002). 36 hours post-transfection cells were stimulated with either control isotonic or hypotonic medium for a period of 30 minutes. Cells were lysed in 0.3 mL of ice-cold lysis buffer/dish, lysates were clarified by centrifugation at 4° C. for 15 minutes at 26,000 g and the supernatant aliquots were frozen in liquid nitrogen and stored at −20° C. Protein concentrations were determined using the Bradford method. Cells were treated with the indicated concentrations of the SPAK/OSR1 inhibitors. […]
(§1) The membranes were incubated for 30 min with TBST (Tris-buffered saline, 0.05% Tween-20) containing 5% (w/v) skim milk. […] After repeating the washing steps, signals were detected with enhanced chemiluminescence reagent. […] The densities of bands were measured with ImageJ. […]
HEK293 cells were transfected with a DNA construct encoding wild type N-terminally FLAG-tagged KCC2. […] See FIG. 3 for Western blot quantitation. […]

NKCC1 pThr203 = test: Phosphorylation immunoblot in KCC2-transfected HEK293 cells; format: cell-based, human
Description: (§2) HEK293 (human embryonic kidney 293) cells were cultured on 10-cm-diameter dishes in DMEM supplemented with 10% (v/v) foetal bovine serum, 2 mM L-glutamine, 100 U/ml penicillin and 0.1 mg/ml streptomycin. HEK293 cells were transfected with a mixture of 20 μl of 1 mg/ml polyethylenimine (Polysciences) and 5-10 μg of plasmid DNA as described previously (Durocher et al., 2002). 36 hours post-transfection cells were stimulated with either control isotonic or hypotonic medium for a period of 30 minutes. Cells were lysed in 0.3 mL of ice-cold lysis buffer/dish, lysates were clarified by centrifugation at 4° C. for 15 minutes at 26,000 g and the supernatant aliquots were frozen in liquid nitrogen and stored at −20° C. Protein concentrations were determined using the Bradford method. Cells were treated with the indicated concentrations of the SPAK/OSR1 inhibitors. […] Hypotonic low chloride buffer was 67.5 mM sodium-gluconate, 2.5 mM potassium-gluconate, 0.25 mM CaCl2), 0.25 mM MgCl2, 0.5 mM Na2HPO4, 0.5 mM Na2SO4 and 7.5 mM HEPES (pH 7.5).
The membranes were incubated for 30 min with TBST (Tris-buffered saline, 0.05% Tween-20) containing 5% (w/v) skim milk. The blots were then washed six times with TBST and incubated for 1 hour at room temperature with secondary HRP-conjugated antibodies diluted 5000-fold in 5% (w/v) skim milk in TBST. After repeating the washing steps, signals were detected with enhanced chemiluminescence reagent. Immunoblots were developed using a film automatic processor (SRX-101; Konica Minolta Medical) and films were scanned at 600 dpi (PowerLook 1000; UMAX). Figures were generated using Photoshop/Illustrator (Adobe). The densities of bands were measured with ImageJ. For phospho-antibody immunoprecipitation, KCC isoforms were immunoprecipitated from indicated cell extracts. 2 mg of the indicated clarified cell extract were mixed with 15 μg of the indicated phospho-specific KCC antibody conjugated to 15 μl of protein-G-Sepharose, in the added presence of […] of the dephosphorylated form of the phosphopeptide antigen, and incubated 2 hours at 4° C. with gentle shaking. Immunoprecipitates were washed three times with 1 mL of lysis buffer containing 0.15 M NaCl and twice with 1 ml of buffer A. Bound proteins were eluted with 1×LDS sample buffer.
HEK293 cells were transfected with a DNA construct encoding wild type N-terminally FLAG-tagged KCC2. 36 hrs post-transfection, cells were exposed 30 min to either control isotonic or hypotonic low [C1^−] conditions, then treated in the same conditions for an additional 30 min with the indicated inhibitors at the concentrations noted. Cell lysates were subjected to SDS-PAGE and Western blotting with the indicated antibodies. See FIG. 3 for Western blot quantitation.
Referring to FIG. 2, concentration-response experiments testing effects of Closantel analogs on phosphorylation of KCC2 Thr906/Thr1007 are shown. HEK293 cells were transfected with DNA construct encoding wild type N-terminally FLAG-tagged KCC2. 36 h post-transfection, cells were exposed 30 min to either control isotonic conditions or hypotonic low Cl^− conditions, then treated in the same conditions with the specified inhibitors (1b, 1c, 1f, 1d, 1h, and 1g, respectively) at the indicated concentrations for an additional 30 min. Lysates were subjected to SDS-PAGE and Western blotting with the indicated antibodies.
Referring to FIG. 3, HEK293 cells were transfected with the DNA construct encoding wild type N-terminally FLAG-tagged KCC2. 36 h post-transfection, cells were exposed 30 min to either control isotonic or hypotonic low Cl^− conditions, then treated in the same conditions with the specified inhibitors at the indicated concen-trations for an additional 30 min. Lysates were subjected to SDS-PAGE and Western blotting with the indicated antibodies. Closantel, STOCK1S-14279 and STOCK1S-50699 were used as reference compounds.

[2] = system: SPAK Ser373, NKCC1 Thr203/207/212 and KCCs phosphorylation; test: Phosphorylation immunoblot in HEK293 cells; format: cell-based, human
Description: as §2, §1

pSPAK = test: IVH-induced phosphorylation in rat choroid plexus, ICV delivery; format: in vivo; conditions: 48 hrs post-IVH, n=3
SPAK-WNK1 interaction = molecular target: T1, SPAK-WNK1 interaction (Homo sapiens, UniProt Q9UEW8); test: Co-immunoprecipitation of WNK1 with SPAK from HEK293 cell lysates; format: binding; conditions: 30 min on ice
T1 construct: Non-transfected HEK293 cell lysates; endogenous in cells; host or cells: HEK293 (non-transfected) lysate
Description: Referring to FIG. 6, evidence that SPAK associates with WNK1, and interaction is disrupted by SPAK CCT mutation is shown. […] Immunoprecipitates were subjected to immunoblot probed with antibody to total WNK1 and antibody to total SPAK.

Cc1cc(C(C#N)c2ccc(Cl)cc2)c(Cl)cc1NC(=O)c1cc(I)cc(I)c1O (centres unmarked) [Closantel]
concentration at which phosphorylation of KCCs site-1 was significantly inhibited [1]: 10 µM

Cc1cc(C(C#N)c2ccc(Cl)cc2)c(Cl)cc1NC(=O)c1cc(Cl)ccc1O (centres unmarked) [ZT-1a, 5-chloro-N-(5-chloro-4-((4-chlorophenyl)(cyano)methyl)-2-methylphenyl)-2-hydroxy-benzamide]
inhibition at 1 µM (NKCC1 pThr203; Homo sapiens, read-out: inhibition of NKCC1 p-Thr203/207/212, up to, at 1 μM, n=4): ≤ 72% | NKCC1 pThr203 (μM) hypo (NKCC1 pThr203; hypotonic low Cl- conditions, concentration inhibiting phosphorylation): 1, 1 μM | NKCC1 pThr203 (μM) Iso (NKCC1 pThr203; isotonic conditions, concentration inhibiting phosphorylation): 1, 1 μM | concentration inhibiting phosphorylation of SPAK Ser373, NKCC1 Thr203/207/212 and KCCs [2]: 3 µM | effect on SPAK/OSR1 Ser373/Ser325 and NKCC1 Thr203/Thr207/Thr212 phosphorylation ([2]; dose-dependent (1-10), hypotonic low Cl- and isotonic conditions): markedly inhibited | reduction of IVH-induced expression of pSPAK (pSPAK): 55±3.6% | co-immunoprecipitation of WNK1 with SPAK (SPAK-WNK1 interaction): potently abolished
